From patent publication US20200163332A1, “METHOD OF IMPROVING CROP SAFETY” (Bayer CropScience LP, priority 2017, published 2020)
“And” between values parts separate entries of the source, which are not always exact repeats. Equal values may be shown once. Read-outs that look alike come from different tables or passages of the source.

What was measured:
[1] = tested on: Soybean seeds of the variety Williams 82; conditions: with ILEVO 0.15 mg ai per seed, versus ILEVO alone, CaCl2•2 H2O 10.000 mM, about 10 days after planting
Description: All solutions were pH adjusted to pH 5.6-6.2. In addition, a seed treatment was prepared with a cobalt and molybdenum combination (“CoMo”) containing the cobalt chloride and sodium molybdate applied at the respective doses shown in Table 9. A commercial zinc solution was also applied as a seed treatment. “Macro”, “Micro” and “Complete” nutrient solution cocktails which combined all the respective nutrients from Table 9 into one nutrient solution were included as seed treatments.
About 10 days after planting the treated seeds, the emerging seedlings were analyzed to determine their average plant height and average unifoliate leaf area.

[2] = tested on: Soybean seeds of the variety Williams 82; conditions: for Average Area (Total Leaf Area) / Average Height (Plant Height): 15 Days after Planting
Description: Plant heights and total leaf area were determined 15 days after planting. The total leaf area was calculated by adding the unifoliate leaf area and the trifoliate leaf area of a soybean plant. Between 11 and 15 replicates were evaluated for each measurement. Average values along with their standard errors are reported.

[3] = tested on: Soybean seeds of the variety Williams 82; assay: Example A: soybean seed treatment with antioxidants, with or without Fluopyram; cotyledon total and healthy area; conditions: for Average Cotyledon Area (mm^2) Growth Promotion with Antioxidant / Increase in Healthy Area % Difference: antioxidant at effective concentration versus no antioxidant; for Average Cotyledon Area / Average % Healthy Area / Average Healthy Area: after 10 days
[4] = ILEVO 0.15 mg ai per seed + 10 mM CaCl2•2 H2O
[5] = ILEVO 0.15 mg ai per seed + 75 mM CaCl2•2 H2O
[6] = ILEVO 0.15 mg ai per seed + 150 mM CaCl2•2 H2O
[7] = calcium chloride added to ILEVO seed treatment versus ILEVO alone, effect increased at higher concentrations
[8] = two additional soybean varieties besides Williams 82
[9] = UTC seeds (no FLU) plus antioxidant at effective concentration (Beta-Carotene 200 μM, Co-enzyme Q10 3 μM, Meso-Zeaxanthin 250 ppm, L-ascorbic acid 800 ppm, alpha tocopherol phosphate disodium 100 ppm)
[10] = UTC seeds (no FLU) plus antioxidant at effective concentration (as in E7)
[11] = seeds treated with FLU 0.15 mg ai/seed plus antioxidant at effective concentration (200 μM, 3 μM, 250 ppm, 800 ppm, 100 ppm as in E4)
[12] = seeds treated with FLU 0.15 mg ai/seed plus antioxidant at effective concentration (Beta-Carotene 200 μM, Co-enzyme Q10 3 μM, Meso-Zeaxanthin 250 ppm, L-ascorbic acid 800 ppm, alpha tocopherol phosphate disodium 100 ppm)
[13] = FLU 0.15 mg ai/seed alone (antioxidant 0 μM / 0 ppm; control of the respective antioxidant series)

With `[Ca+2].[Cl-].[Cl-]` [CaCl2•2 H2O, calcium chloride] the average plant height ([1]; FIG. 1) was “significantly increased”, the “average unifoliate leaf area” value ([1]; FIG. 2) was “significantly increased” and the “Average Area (Total Leaf Area)” value [2, 4] was 46.70 cm^2. The “Average Height (Plant Height)” value [2, 4] was 12.93 cm, the “Average Area (Total Leaf Area)” value [2, 5] was 53.89 cm^2 and the “Average Height (Plant Height)” value [2, 5] was 13.69 cm. For the same molecule, the “Average Area (Total Leaf Area)” value [2, 6] was 53.03 cm^2, the “Average Height (Plant Height)” value [2, 6] was 14.31 cm and the “height of the soybean plants” value [2, 7] was “significantly increased”. For the same molecule, the “total leaf area of the soybean plants” value [2, 7] was “significantly increased”, the “effect on height of soybean plants treated with ILEVO” value [2, 8] was “positive effect” and the “effect on leaf area of soybean plants treated with ILEVO” value [2, 8] was “positive effect”.

In the case of `COC1=C(OC)C(=O)C(C/C=C(\C)CC/C=C(\C)CC/C=C(\C)CC/C=C(\C)CC/C=C(\C)CC/C=C(\C)CC/C=C(\C)CC/C=C(\C)CC/C=C(\C)CCC=C(C)C)=C(C)C1=O` [Co-enzyme Q10], the “Average Cotyledon Area (mm^2) Growth Promotion with Antioxidant” value (from here on “Average Cotyledon Area … with Antioxidant”) ([3]; FLU-treated seeds) is reported as 19.49 mm^2, the “Increase in Healthy Area % Difference” value ([3]; FLU-treated seeds) is reported as 10.25% and the “Average Cotyledon Area” value [3, 9] is reported as 416.55 mm^2. For the same molecule, the “Average % Healthy Area” value [3, 10] was 100.00%, the “Average Healthy Area” value [3, 10] was 416.55 mm^2 and the “Average Cotyledon Area … with Antioxidant” value ([3]; UTC seeds (no FLU)) was 47.57 mm^2. The “Increase in Healthy Area % Difference” value ([3]; UTC seeds (no FLU)) was 0.00%, the “Average % Healthy Area” value [3, 11] was 76.54% and the “Average Healthy Area” value [3, 11] was 240.72 mm^2. The “Average Cotyledon Area” value [3, 12] was 312.31 mm^2.

With `O=C(NCCc1ncc(C(F)(F)F)cc1Cl)c1ccccc1C(F)(F)F` [FLU, Fluopyram, reference compound] the “Average % Healthy Area” value [3, 13] was 59.63% and 67.93% and 68.20% and 60.08% and 66.29%, the “Average Cotyledon Area” value [3, 13] was 252.85 mm^2 and 307.56 mm^2 and 290.71 mm^2 and 237.73 mm^2 and 292.81 mm^2 and the “Average Healthy Area” value [3, 13] was 153.20 mm^2 and 210.37 mm^2 and 199.35 mm^2 and 142.71 mm^2 and 195.10 mm^2.

Meso-Zeaxanthin was tested, and the “Average Cotyledon Area … with Antioxidant” value ([3]; FLU-treated seeds) was 78.23 mm^2, the “Increase in Healthy Area % Difference” value ([3]; FLU-treated seeds) was 10.05% and the “Average Cotyledon Area” value [3, 9] was 350.59 mm^2. For the same molecule, the “Average % Healthy Area” value [3, 10] was 99.66%, the “Average Healthy Area” value [3, 10] was 349.18 mm^2 and the “Average Cotyledon Area … with Antioxidant” value ([3]; UTC seeds (no FLU)) was 30.66 mm^2. For the same molecule, the “Increase in Healthy Area % Difference” value ([3]; UTC seeds (no FLU)) was 4.59%, the “Average % Healthy Area” value [3, 11] was 69.68% and the “Average Healthy Area” value [3, 11] was 230.46 mm^2. The “Average Cotyledon Area” value [3, 12] was 331.07 mm^2.
